Experimental data taken from ChEMBL document CHEMBL4706477, “Synthesis and Biological Evaluation of Calothrixins B and their Deoxygenated Analogues” (J Med Chem, 2018).
The source made the active and inactive calls. The rule behind the calls is not given here.

Experiments:
[1] = molecular target: T1, DNA topoisomerase 2-alpha (Homo sapiens, UniProt P11388); test: Inhibition of recombinant human topoisomerase 2 assessed as decrease in relaxation of supercoiled pBlue-Script KS(+) plasmid DNA incubated for 30 mins by ethidium bromide staining based gel electrophoresis method
[2] = test system: HCT-116; test: Anticlonogenic activity against human HCT-116 cells assessed as inhibition of colony formation at 0.1 to 5 uM incubated for 48 hrs followed by compound washout with PBS and measured after 14 days by crystal violet staining based analysis; assay type: functional, cell-based; settings: dose 0.1-5 µM
[3] = test system: HCT-116; test: Induction of cell cycle arrest in human HCT-116 cells assessed as accumulation of cells at G2/M phase at 5 uM incubated for 48 hrs by propidium iodide staining based flow cytometry analysis; assay type: functional
[4] = test system: NCI-H460; test: cells; settings: Homo sapiens, NCI-H460, 48 h
Description: Antiproliferative activity against human NCI-H460 cells assessed as reduction in cell viability incubated for 48 hrs by sulphorhodamine B assay

[5] = test system: Calf thymus DNA; test: Binding affinity to calf thymus DNA assessed as red shift absorbance measured at 258 nm at 3*10^-5 mol/L by double beam UV-Vis spectroscopic analysis; assay type: nucleic-acid assay; settings: Bos taurus
[6] = test system: HEK293; test: Antiproliferative activity against human HEK293 cells assessed as reduction in cell viability incubated for 48 hrs by sulphorhodamine B assay; assay type: functional
[7] = test system: HCT-116; test: Induction of DNA damage in human HCT-116 cells assessed as tail length at 5 uM incubated for 48 hrs by alkaline Comet assay relative to control; assay type: functional, cell-based
[8] = test system: Jurkat; test: cells; settings: Homo sapiens, 48 h
Description: Antiproliferative activity against human Jurkat cells assessed as reduction in cell viability incubated for 48 hrs by sulphorhodamine B assay

[9] = test system: NCI-H460; test: Induction of apoptosis in human NCI-H460 cells assessed as morphological changes at 0.5 uM incubated for 48 hrs by acridine orange/propidium iodide double staining based fluorescence microscopy analysis; assay type: functional, cell-based
[10] = molecular target: T2, DNA topoisomerase 1 (Homo sapiens) (UniProt P11387); test: Inhibition of human topoisomerase 1 assessed as induction of negative supercoiled DNA using relaxed pBlue-Script KS(+) plasmid DNA as substrate measured after 15 mins by agarose gel electrophoresis analysis; settings: dose 60-100 µM
T2 sequence (whole entry): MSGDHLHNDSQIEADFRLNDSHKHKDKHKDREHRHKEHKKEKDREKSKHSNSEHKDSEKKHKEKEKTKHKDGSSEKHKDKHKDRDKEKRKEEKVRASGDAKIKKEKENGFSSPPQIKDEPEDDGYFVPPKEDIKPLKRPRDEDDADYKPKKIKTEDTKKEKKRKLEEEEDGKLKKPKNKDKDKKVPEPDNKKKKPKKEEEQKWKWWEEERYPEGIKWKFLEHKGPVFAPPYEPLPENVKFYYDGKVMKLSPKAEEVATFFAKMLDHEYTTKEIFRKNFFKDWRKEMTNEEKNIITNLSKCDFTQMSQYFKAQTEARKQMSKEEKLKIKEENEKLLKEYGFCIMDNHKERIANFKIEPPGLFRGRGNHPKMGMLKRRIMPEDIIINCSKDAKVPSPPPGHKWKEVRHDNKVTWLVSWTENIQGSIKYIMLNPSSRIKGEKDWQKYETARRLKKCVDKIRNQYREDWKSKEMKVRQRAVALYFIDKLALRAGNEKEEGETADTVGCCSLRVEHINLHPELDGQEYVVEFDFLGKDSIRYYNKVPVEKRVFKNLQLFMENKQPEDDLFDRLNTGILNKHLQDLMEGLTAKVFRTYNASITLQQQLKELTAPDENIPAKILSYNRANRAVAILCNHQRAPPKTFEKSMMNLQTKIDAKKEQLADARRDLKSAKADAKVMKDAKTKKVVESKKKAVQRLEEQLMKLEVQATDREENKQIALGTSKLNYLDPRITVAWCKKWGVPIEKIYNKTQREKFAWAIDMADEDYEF

[11] = test system: MCF7; test: cells; settings: Homo sapiens, MCF7, 48 h
Description: Antiproliferative activity against human MCF7 cells assessed as reduction in cell viability incubated for 48 hrs by sulphorhodamine B assay

[12] = physchem; settings: octanol/water
Description: Octanol/water partition coefficient, log P of the compound

[13] = test system: U-251; test: cells; settings: Homo sapiens, U-251, 48 h
Description: Antiproliferative activity against human U-251 cells assessed as reduction in cell viability incubated for 48 hrs by sulphorhodamine B assay

[14] = physchem; settings: octanol/buffer, pH 7.4
Description: Octanol/buffer distribution coefficient, log D of the compound at pH 7.4

[15] = test system: SiHa; test: cells; settings: Homo sapiens, 48 h
Description: Antiproliferative activity against human SiHa cells assessed as reduction in cell viability incubated for 48 hrs by sulphorhodamine B assay

[16] = test system: Calf thymus DNA; test: Binding affinity to calf thymus DNA assessed as hyperchromic effect measured at 302 nm at 3*10^-5 mol/L by double beam UV-Vis spectroscopic analysis; assay type: nucleic-acid assay; settings: Bos taurus
[17] = test system: A549; test: Antiproliferative activity against human A549 cells assessed as reduction in cell viability incubated for 48 hrs by sulphorhodamine B assay; assay type: functional
[18] = test system: NCI-H460; test: Induction of DNA damage in human NCI-H460 cells incubated for 48 hrs by alkaline Comet assay; assay type: functional, cell-based
[19] = test system: NCI-H460; test: Induction of apoptosis in human NCI-H460 cells assessed as cleaved PARP levels at 1 uM incubated for 48 hrs by Western blot analysis; assay type: functional, cell-based
[20] = test system: NCI-H460; test: Induction of cell cycle arrest in human NCI-H460 cells assessed as accumulation of cells at G1 phase incubated for 48 hrs by propidium iodide staining based flow cytometry analysis; assay type: functional; settings: dose 0.1-2 µM
[21] = test system: HeLa; test: cells; settings: Homo sapiens, 48 h
Description: Antiproliferative activity against human HeLa cells assessed as reduction in cell viability incubated for 48 hrs by sulphorhodamine B assay

[22] = test system: HCT-116; test: Induction of cell cycle arrest in human HCT-116 cells assessed as accumulation of cells at G2/M phase at 5 uM incubated for 20 hrs by propidium iodide staining based flow cytometry analysis; assay type: functional
[23] = test system: HCT-116; test: cells; settings: Homo sapiens, HCT-116, 48 h
Description: Antiproliferative activity against human HCT-116 cells assessed as reduction in cell viability incubated for 48 hrs by sulphorhodamine B assay

[24] = test system: MDA-MB-231; test: cells; settings: Homo sapiens, MDA-MB-231, 48 h
Description: Antiproliferative activity against human MDA-MB-231 cells assessed as reduction in cell viability incubated for 48 hrs by sulphorhodamine B assay

[25] = test system: Calf thymus DNA; test: Binding affinity to calf thymus DNA assessed as hyperchromic effect measured at 258 nm at 3*10^-5 mol/L by double beam UV-Vis spectroscopic analysis; assay type: nucleic-acid assay; settings: Bos taurus
[26] = test system: HCT-116; test: Induction of cell cycle arrest in human HCT-116 cells assessed as accumulation of cells at G2/M phase at 5 uM incubated for 3 to 20 hrs in presence of 0.3 uM mitotic inhibitor nocodazole by propidium iodide staining based flow cytometry analysis; assay type: functional; settings: time 3-20 hrs
[27] = test system: NCI-H460; test: Induction of cell death in human NCI-H460 cells at 0.1 uM incubated for 48 hrs by propidium iodide staining based flow cytometry analysis; assay type: functional
[28] = test system: HCT-116; test: Induction of cell cycle arrest in human HCT-116 cells assessed as accumulation of cells at G1 phase at 5 uM incubated for 48 hrs by propidium iodide staining based flow cytometry analysis; assay type: functional
[29] = test system: HCT-116; test: cells; settings: Homo sapiens, HCT-116, 48 h; remark: listed apart in the source
Description: Antiproliferative activity against human HCT-116 p53-/- cells assessed as reduction in cell viability incubated for 48 hrs by sulphorhodamine B assay

[30] = test system: HeLa; test: Induction of apoptosis in human HeLa cells assessed as increase in cleaved PARP levels at 10 uM by Western blot analysis; assay type: functional, cell-based; settings: time 6-48 hrs, TDE = time-dependent effect
[31] = test system: HCT-116; test: Induction of cell cycle arrest in human HCT-116 cells assessed as accumulation of cells at G1 phase at 5 uM incubated for 3 to 20 hrs in presence of 0.3 uM mitotic inhibitor nocodazole by propidium iodide staining based flow cytometry analysis; assay type: functional; settings: time 3-20 hrs
[32] = test system: Calf thymus DNA; test: Binding affinity to calf thymus DNA assessed as hyperchromic shift measured at 362 nm at 3*10^-5 mol/L by double beam UV-Vis spectroscopic analysis; assay type: nucleic-acid assay; settings: Bos taurus
[33] = test system: HCT-116; test: Induction of DNA damage in human HCT-116 cells assessed as tail length at 0.5 uM incubated for 48 hrs by alkaline Comet assay relative to control; assay type: functional, cell-based
[34] = test system: Calf thymus DNA; test: Binding affinity to calf thymus DNA assessed as hypochromic effect at 3*10^-5 mol/L by double beam UV-Vis spectroscopic analysis; assay type: nucleic-acid assay; settings: Bos taurus
[35] = test system: NCI-H460; test: Induction of apoptosis in human NCI-H460 cells assessed as nuclear fragmentation at 2 uM incubated for 48 hrs by acridine orange/propidium iodide double staining based fluorescence microscopy analysis; assay type: functional, cell-based
[36] = test system: HCT-116; test: Induction of apoptosis in human HCT-116 cells assessed as nuclear fragmentation at 2 uM incubated for 48 hrs by acridine orange/propidium iodide double staining based fluorescence microscopy analysis; assay type: functional, cell-based
[37] = test system: HCT-116; test: Induction of cell cycle arrest in human HCT-116 cells assessed as accumulation of cells at G1/S phase at 2 uM incubated for 48 hrs by propidium iodide staining based flow cytometry analysis; assay type: functional
[38] = test system: HeLa; test: Induction of apoptosis in human HeLa cells assessed as increase in cleaved PARP levels at 1 uM by Western blot analysis; assay type: functional, cell-based; settings: time 6-24 hrs, TDE = time-dependent effect
[39] = test system: NCI-H460; test: Induction of apoptosis in human NCI-H460 cells assessed as chromatin condensation at 2 uM incubated for 48 hrs by acridine orange/propidium iodide double staining based fluorescence microscopy analysis; assay type: functional, cell-based
[40] = test system: HCT-116; test: Induction of apoptosis in human HCT-116 cells assessed as chromatin condensation at 2 uM incubated for 48 hrs by acridine orange/propidium iodide double staining based fluorescence microscopy analysis; assay type: functional, cell-based
[41] = test system: NCI-H460; test: Induction of apoptosis in human NCI-H460 cells assessed as increase in cleaved PARP protein levels at 3 uM incubated for 48 hrs by Western blot analysis; assay type: functional, cell-based
[42] = test system: Calf thymus DNA; test: Binding affinity to calf thymus DNA assessed as hyperchromic shift measured at 432 nm at 3*10^-5 mol/L by double beam UV-Vis spectroscopic analysis; assay type: nucleic-acid assay; settings: Bos taurus
[43] = test system: Calf thymus DNA; test: Binding affinity to calf thymus DNA assessed as hypsochromic shift absorbance measured at 284 nm at 3*10^-5 mol/L by double beam UV-Vis spectroscopic analysis; assay type: nucleic-acid assay; settings: Bos taurus
[44] = test system: HCT-116; test: Induction of cell cycle arrest in human HCT-116 cells assessed as accumulation of cells at sub-G1 phase at 2 uM incubated for 48 hrs by propidium iodide staining based flow cytometry analysis; assay type: functional
[45] = molecular target: T1, DNA topoisomerase 2-alpha; test: Inhibition of recombinant human topoisomerase 2 assessed as decrease in relaxation of supercoiled pBlue-Script KS(+) plasmid DNA at < 100 uM incubated for 30 mins by ethidium bromide staining based gel electrophoresis method; settings: dose microM <100, time 30.0 min
[46] = test system: HCT-116; test: Induction of apoptosis in human HCT-116 cells assessed as reduction in PARP protein levels at 3 uM incubated for 48 hrs by Western blot analysis; assay type: functional, cell-based
[47] = molecular target: T1, DNA topoisomerase 2-alpha; test: Inhibition of recombinant human topoisomerase 2 assessed as decrease in relaxation of supercoiled pBlue-Script KS(+) plasmid DNA at 200 uM incubated for 30 mins by ethidium bromide staining based gel electrophoresis method
[48] = test system: Calf thymus DNA; test: Binding affinity to calf thymus DNA assessed as bathochromic shift absorbance in absorption maximum at 3*10^-5 mol/L by double beam UV-Vis spectroscopic analysis; assay type: nucleic-acid assay; settings: Bos taurus

T1 sequence (P11388 whole entry): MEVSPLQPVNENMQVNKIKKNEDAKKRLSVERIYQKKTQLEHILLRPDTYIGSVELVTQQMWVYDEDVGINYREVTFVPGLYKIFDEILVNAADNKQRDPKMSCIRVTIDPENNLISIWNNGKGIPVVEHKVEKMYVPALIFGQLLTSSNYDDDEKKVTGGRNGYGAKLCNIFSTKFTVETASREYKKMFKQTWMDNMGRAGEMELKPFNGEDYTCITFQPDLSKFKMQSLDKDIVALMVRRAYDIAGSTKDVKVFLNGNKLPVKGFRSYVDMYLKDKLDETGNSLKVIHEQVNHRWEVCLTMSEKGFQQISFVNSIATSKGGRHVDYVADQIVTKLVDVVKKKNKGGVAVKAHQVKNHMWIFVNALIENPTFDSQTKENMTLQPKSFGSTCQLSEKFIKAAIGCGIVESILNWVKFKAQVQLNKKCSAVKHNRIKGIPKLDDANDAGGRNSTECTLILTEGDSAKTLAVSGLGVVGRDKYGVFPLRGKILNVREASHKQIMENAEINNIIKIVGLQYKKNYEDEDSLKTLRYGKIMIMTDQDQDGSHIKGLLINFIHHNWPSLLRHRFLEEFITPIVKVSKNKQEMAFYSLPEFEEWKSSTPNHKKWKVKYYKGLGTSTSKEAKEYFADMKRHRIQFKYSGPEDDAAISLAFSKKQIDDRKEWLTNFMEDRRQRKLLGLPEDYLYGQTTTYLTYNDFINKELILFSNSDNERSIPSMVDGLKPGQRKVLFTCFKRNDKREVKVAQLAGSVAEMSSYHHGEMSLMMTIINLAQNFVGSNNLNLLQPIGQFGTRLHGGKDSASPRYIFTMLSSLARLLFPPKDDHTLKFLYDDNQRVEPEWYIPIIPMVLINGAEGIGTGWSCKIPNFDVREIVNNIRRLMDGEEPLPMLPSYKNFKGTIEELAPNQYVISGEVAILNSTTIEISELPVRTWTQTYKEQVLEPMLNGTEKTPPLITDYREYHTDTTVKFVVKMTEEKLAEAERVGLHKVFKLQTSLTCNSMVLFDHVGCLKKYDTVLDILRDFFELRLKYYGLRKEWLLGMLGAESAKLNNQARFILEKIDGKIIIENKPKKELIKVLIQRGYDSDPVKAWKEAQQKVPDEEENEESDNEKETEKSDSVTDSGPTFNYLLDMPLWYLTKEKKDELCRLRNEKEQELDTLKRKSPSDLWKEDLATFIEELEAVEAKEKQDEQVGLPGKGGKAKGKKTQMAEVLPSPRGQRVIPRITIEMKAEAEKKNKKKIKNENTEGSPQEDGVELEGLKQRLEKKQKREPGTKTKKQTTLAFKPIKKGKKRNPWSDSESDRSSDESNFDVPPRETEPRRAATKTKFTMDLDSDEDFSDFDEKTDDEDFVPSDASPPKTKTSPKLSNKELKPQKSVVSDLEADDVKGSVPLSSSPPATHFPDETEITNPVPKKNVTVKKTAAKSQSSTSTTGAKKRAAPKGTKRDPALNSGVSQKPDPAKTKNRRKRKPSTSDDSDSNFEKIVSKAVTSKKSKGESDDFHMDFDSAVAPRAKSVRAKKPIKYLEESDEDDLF

SMILES | GI50 [4] [nM] | Activity [7] | GI50 [8] [nM] | GI50 [11] [nM] | logP [12] | GI50 [13] [nM] | logD [14] | GI50 [15] [nM] | GI50 [21] [nM] | GI50 [23] [nM] | GI50 [24] [nM] | Activity [26] | GI50 [29] [nM] | Activity [34] [%] | further results
Fc1ccc2c(c1)ncc1cc3c(cc12)[nH]c1ccccc13 | 1 | Active | > 4000 | 20 | 1.91 | > 4000 | 1.61 | > 4000 | 20 | 6000 | 950 | Active |  |  | inhibition [1]: inactive; inhibition [2]: Active; Activity [3]: Active; Activity [5]: 14 nm; GI50 [6]: 5.2 nM; Activity [9]: Active; Activity [10]: Dose-dependent effect; Activity [16]: 41%; GI50 [17]: > 4000 nM; Activity [18]: Dose-dependent effect; Activity [19]: Active; Activity [20]: Dose-dependent effect; Activity [22]: Active; Activity [25]: 46%; Activity [27]: Active
O=C1c2[nH]c3ccccc3c2C(=O)c2cnc3ccccc3c21 [CALOTHRIXIN B] | > 4000 | Active | > 4000 | 260 | -1.81 | 2250 | -2.11 | 3500 | 470 | 650 | 160 | Active | 2550 |  | Activity [28]: Active; Activity [30]: Tde; Activity [31]: inactive
O=C1c2c[n+]([O-])c3ccccc3c2C(=O)c2[nH]c3ccccc3c21 [CALOTHRIXIN A] | 220 |  | 70 | 30 | 1.32 | 80 | 1.02 | 50 | 80 | 110 | 40 |  | 80 | 13 | Activity [32]: 12%; Activity [33]: Active; Activity [35]: Active; Activity [36]: Active; Activity [37]: Active; Activity [38]: Tde; Activity [39]: Active; Activity [40]: Active; Activity [41]: Active; Activity [42]: 13%; Activity [43]: 10 nm; Activity [44]: Active; inhibition [45]: inactive; Activity [46]: Active; inhibition [47]: Active
CN(C)CCCNc1nc2ccccc2c2cc3[nH]c4ccccc4c3cc12 | 1500 |  |  | 2750 |  | 1350 |  | 1150 | 1100 | 1750 | 1000 |  |  | 40 | Activity [48]: 15 nm
